Experiments:
Type in all cases: cell-based
[1] = molecular target: Kappa-type opioid receptor (Homo sapiens, UniProt P41145); assay: Displacement of [3H]diprenorphine from cloned human kappa opioid receptor expressed in CHO cells
[2] = molecular target: Mu-type opioid receptor (Homo sapiens, UniProt P35372); assay: Displacement of [3H]diprenorphine from cloned human mu opioid receptor expressed in CHO cells
[3] = molecular target: Delta-type opioid receptor (Homo sapiens, UniProt P41143); assay: Displacement of [3H]bremazocine from cloned human delta opioid receptor expressed in CHO cells
Delta-type opioid receptor, sequence (P41143 whole entry): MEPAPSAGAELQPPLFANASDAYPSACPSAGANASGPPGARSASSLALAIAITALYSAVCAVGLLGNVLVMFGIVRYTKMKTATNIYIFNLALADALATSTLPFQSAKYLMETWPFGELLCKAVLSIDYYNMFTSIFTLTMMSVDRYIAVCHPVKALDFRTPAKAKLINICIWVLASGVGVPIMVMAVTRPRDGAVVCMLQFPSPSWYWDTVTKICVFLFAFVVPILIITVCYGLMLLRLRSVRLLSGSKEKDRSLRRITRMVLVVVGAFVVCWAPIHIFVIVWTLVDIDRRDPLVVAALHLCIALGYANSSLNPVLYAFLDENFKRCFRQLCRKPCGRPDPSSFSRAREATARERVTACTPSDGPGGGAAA

Mu-type opioid receptor, sequence (P35372 whole entry): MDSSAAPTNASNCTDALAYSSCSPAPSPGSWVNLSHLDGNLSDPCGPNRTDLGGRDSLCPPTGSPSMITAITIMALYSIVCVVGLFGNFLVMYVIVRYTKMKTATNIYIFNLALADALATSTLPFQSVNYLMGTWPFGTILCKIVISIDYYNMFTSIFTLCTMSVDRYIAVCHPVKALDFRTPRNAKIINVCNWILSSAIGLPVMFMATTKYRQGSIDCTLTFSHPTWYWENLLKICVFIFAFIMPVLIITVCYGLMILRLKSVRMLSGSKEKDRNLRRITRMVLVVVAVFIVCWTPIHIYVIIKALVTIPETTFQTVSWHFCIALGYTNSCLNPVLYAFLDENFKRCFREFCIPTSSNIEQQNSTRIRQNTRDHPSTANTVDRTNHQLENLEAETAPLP
Kappa-type opioid receptor, sequence (P41145 whole entry): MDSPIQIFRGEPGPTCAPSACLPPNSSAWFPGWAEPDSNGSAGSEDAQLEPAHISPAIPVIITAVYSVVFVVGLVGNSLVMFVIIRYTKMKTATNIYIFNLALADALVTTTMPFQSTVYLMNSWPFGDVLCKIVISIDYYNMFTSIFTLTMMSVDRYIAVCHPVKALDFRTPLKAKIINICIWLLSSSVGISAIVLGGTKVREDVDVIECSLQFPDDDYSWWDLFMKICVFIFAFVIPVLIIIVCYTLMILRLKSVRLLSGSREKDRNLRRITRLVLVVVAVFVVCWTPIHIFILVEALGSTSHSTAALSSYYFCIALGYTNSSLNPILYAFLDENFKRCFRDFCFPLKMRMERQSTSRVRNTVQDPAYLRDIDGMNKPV

Row | Ki [1] [nM] | Ki [2] [nM] | Ki [3] [nM] | SMILES
1 |  | 20.8 | 504 | CCCCN1CCCc2cc(Oc3ccc(C(N)=O)cn3)ccc2C1
2 | 116 | 12 | 163 | CCCCCCN1CCCc2cc(Oc3ccc(C(N)=O)cn3)ccc2C1
3 | 78.1 | 11.1 | 232 | CC(C)CCN1CCCc2cc(Oc3ccc(C(N)=O)cn3)ccc2C1
4 | 61.6 | 42 | 3890 | CCC(CC)CN1CCCc2cc(Oc3ccc(C(N)=O)cn3)ccc2C1
5 | 360 | 129 | 1910 | NC(=O)c1ccc(Oc2ccc3c(c2)CCCN(CCN2CCOCC2)C3)nc1
6 | 106 | 7.55 | 108 | CC(C)CCCN1CCCc2cc(Oc3ccc(C(N)=O)cn3)ccc2C1
7 | 71.6 | 18.3 | 409 | CC(C)(C)CCN1CCCc2cc(Oc3ccc(C(N)=O)cn3)ccc2C1

Second part, the compound before the results:

Row | SMILES | Ki [1] [nM] | Ki [2] [nM] | Ki [3] [nM]
8 | NC(=O)c1ccc(Oc2ccc3c(c2)CN(CCc2ccccc2)C3)nc1 | > 5000 | 659 | 2270
9 | NC(=O)c1ccc(Oc2ccc3c(c2)CCN(Cc2ccccc2)C3)nc1 | 2150 | 179 | 2350
10 | NC(=O)c1ccc(Oc2ccc3c(c2)CCN(CCCc2ccccc2)C3)nc1 | 556 | 185 | 2140
11 | NC(=O)c1ccc(Oc2ccc3c(c2)CN(CCc2ccccc2)CC3)nc1 | 3610 | > 3330 | > 5000
12 | NC(=O)c1ccc(Oc2ccc3c(c2)CCCN(CCc2ccccc2)C3)nc1 | 361 | 10.1 | 169
13 | NC(=O)c1ccc(Oc2ccc3c(c2)CCN(Cc2ccccc2)CC3)nc1 | 2870 | 406 | 2710
14 | NC(=O)c1ccc(Oc2ccc3c(c2)CCN(CCc2ccccc2)CC3)nc1 | > 4900 | 91.5 | 1380
15 | NC(=O)c1ccc(Oc2ccc(CCN3CCc4ccccc4C3)cc2)nc1 | 188 | 5.05 | 144
16 | CCCCCN1CCCc2cc(Oc3ccc(C(N)=O)cn3)ccc2C1 | 106 | 11.9 | 187
17 | CC(C)CCCCN1CCCc2cc(Oc3ccc(C(N)=O)cn3)ccc2C1 | 319 | 11.9 | 240
18 | NC(=O)c1ccc(Oc2ccc3c(c2)CCCN(CCCC2CCCCC2)C3)nc1 | 704 | 41.7 | 466
19 | NC(=O)c1ccc(Oc2ccc3c(c2)CN(Cc2ccccc2)C3)nc1 | > 5000 | 1010 | > 5000
20 | NC(=O)c1ccc(Oc2ccc3c(c2)CCCN(CCCN2CCOCC2)C3)nc1 | 3250 | 216 | 2580
21 | NC(=O)c1ccc(Oc2ccc3c(c2)CCN(CCc2ccccc2)C3)nc1 | 1220 | 16 | 180
22 | NC(=O)c1ccc(Oc2ccc3c(c2)CN(Cc2ccccc2)CC3)nc1 | 2430 | 232 | 2450
23 | NC(=O)c1ccc(Oc2ccc3c(c2)CCCN(CCCC(F)(F)F)C3)nc1 |  | 24.4 | 388
